Patent publication US20230158015A1, “DRUG COMBINATIONS FOR INHIBITING INFLAMMATION AND SRC KINASE ACTIVATION FOLLOWING INVASIVE SURGICAL PROCEDURES” (SINTETICA S.A., priority 2020, published 2023)
Where two headings read alike, the source gives them in different places.

Tests used:
[1] = system: receptor protein tyrosine phosphatase; settings: human endothelial cells, independent of µ-opioid receptor expression; cited from earlier work
Src protein [2] = test: p-Src activation in TNF-α treated KPC-105 mouse cell line (Western blot); type: cell-based; settings: TNF-α 20 ng/ml
Protocol: (§1) On day 1, KPC-105 mouse and human pancreatic cancer cell lines were cultured until 300,000 cells per well in a 6 well plate were obtained. On day 2, each cell line was treated with 20 ng/ml or mouse or human TNF-α for 2-hours. Cells were then collected and washed with phosphate buffered saline and stored at -80° C. Cells were then lysed with 100 µl of radioimmunoprecipitation assay buffer with protease and phosphatase buffers.
(§2) Protein estimation was then performed using a Bradford assay under the following conditions: • A Western Blot was stripped with 6 M guanidine hydrochloride after p-Src protein blocking to probe with total Src protein. • 10% SDS-PAGE with 15 well Blocking: 5% bovine serum albumin for p-Src blot P-Src-Tyr416 (GeneTex GTX81151) Rb: 1:1000 in 5% bovine serum albumin, Overnight. • Total Src (Cell Signaling Technology 2108S ) Rb mAb 1:1000 overnight in 5 % milk. • GAPDH (Invitrogen# AM4300) : 1:5000 in 5% milk overnight. • Wash: 4x for 5 minutes each with 1x TBST. • Developed using 50% femto for the p-Src protein and homemade ECL for total Src and GAPDH protein.

Src protein [3] = test: p-Src activation in TNF-α treated human pancreatic cancer cell line (Western blot); type: cell-based; settings: TNF-α 20 ng/ml
Protocol: as §1, §2

p-Src / total Src [4] = type: cell-based, mouse
Protocol: On day 1, mouse KPC-105 cells were cultured until 300,000 cells per well in a 6 well plate were obtained. On day 2, the cells were treated with 0, 0.5, 1,5, 10, 15, 30, 50 and 100 µM lidocaine for 30 minutes. Plates were then collected and washed with phosphate buffered saline and stored at -80° C. Cells were subsequently lysed with 100 µl of radioimmunoprecipitation assay buffer with protease and phosphatase buffers.
as §2, with “done” for “then performed”, “10” for “with 15”, “blot. •” for “blot”, “5%” for “5 %”, “ECL substrate” for “ECL”
Example 4 evaluated endogenous Src and p-Src in 10 µM lidocaine treated mouse KPC-105 cells at different time points.
Example 5 evaluated endogenous Src and p-Src in mouse KPC-105 cells treated with 10 10 µM lidocaine for different time points, and increasing doses of methylnaltrexone after one hour of incubation. Western Blot banding patterns were generated using 15 µg /lane (NP40 lysates) 10% SDS PAGE over a 6-hour duration (lidocaine) and a 1-hour duration (methylnaltrexone).
• P-Src-Tyr416 (GeneTex # GTX81151) Rb: 1:1000 in 5% bovine serum albumin o/n at 4° C. • 10 µg /lane (NP40 lysates) 10% SDS PAGE • Total Src (CST # 2108S ) Rb mAb 1:1000 in 5% bovine serum albumin o/n at 4° C.
• P-Src-Tyr416 (GeneTex # GTX81151) Rb: 1:1000 in 5% bovine serum albumin 3 hours at room temperature • 10 µg /lane (NP40 lysates) 10% SDS PAGE • Total Src (CST # 2108S ) Rb mAb 1:1000 in 5% bovine serum albumin 3 hours at room temperature
• P-Src-Tyr416 (GeneTex # GTX81151) 1:2000 in 5% bovine serum albumin, o/n at 4° C. • Total Src (CST # 2108S ) 1:3000 in 5% bovine serum albumin, o/n at 4° C. • Vinculin (ProteinTech) 1:4000 in 5% milk o/n at 4° C.
• P-Src-Tyr416 (GeneTex # GTX81151) 1:2000 in 5% bovine serum albumin, o/n at 4C • Total Src (CST # 2108S ) 1:3000 in 5% bovine serum albumin, o/n at 4C

p-Src / total Src [5] = test: Total Src and p-Src expression in AsPc 1 human pancreatic cancer cell line (Western blot); type: cell-based
Protocol: Example 10 evaluated the effect of 10 µM lidocaine (L), 100 nM methylnaltrexone (M) and the combination of 10 µM lidocaine + 100 nM methylnaltrexone (L+M) for 1 hour on total Src and p-Src expression in a human pancreatic cancer cell line (AsPc 1).
(§3) • P-Src-Tyr416 (GeneTex # GTX81151) 1:2000 in 5% bovine serum albumin, at room temperature, 4 hours • Total Src (CST # 2108S) 1:3000 in 5% bovine serum albumin, at room temperature, 4 hours

p-Src / total Src [6] = test: Total Src and p-Src expression in MiaPaCa 2 human pancreatic cancer cell line (Western blot); type: cell-based; settings: 10 µM lidocaine, 100 nM methylnaltrexone or both, one hour
Protocol: as §3
Example 11 evaluated the effect of 10 µM lidocaine (L), 100 nM methylnaltrexone (M) and the combination of 10 µM lidocaine + 100 nM methylnaltrexone (L+M) for 1 hour on total Src and p-Src expression in a human pancreatic cancer cell line (MiaPaCa 2). Experimental conditions were identical to Example 10.

p-Src / total Src [7] = test: Total Src and p-Src expression in Panc1 human pancreatic cancer cell line (Western blot); type: cell-based; settings: 10 µM lidocaine, 100 nM methylnaltrexone or both, time points up to 6 hours, fresh media
Protocol: as §3
Example 12 evaluated the effect of 10 µM lidocaine (L), 100 nM methylnaltrexone (M) and the combination of 10 µM lidocaine + 100 nM methylnaltrexone (L+M) on total Src and p-Src expression in a human pancreatic cancer cell line (Panc1) at multiple time points up to 6 hours, in fresh media. Experimental conditions were identical to Example 10.

[8] = system: LPS-challenged C57BL/6 mice; test: LPS-induced inflammation model, H&E histopathology of lungs and spleen; type: in vivo, mouse
Protocol: (§4) C57BL/6J mice (6-8 weeks) were purchased from Charles River Laboratories (USA) and acclimatized for at least 1 week before use. All mice were housed in a pathogen-free facility. The mice received LPS for 24 hours. Following 24 hours, mice were treated either with lidocaine alone or methylnaltrexone alone or a combination of both, as shown in Table 1.
(§5) At the conclusion of the study, the blood and tissue samples were collected for further study. The serum was used to determine pro-inflammatory cytokines using the LEGENDplex™ mouse inflammation panel (BioLegend, USA) kit followed by flow cytometry. The lungs and spleen tissue samples were used for hematoxylin and eosin (H&E) staining and immunohistochemical analyses for immune cells, including macrophages and natural killer (NK) cells, B cells, T cells, and its subsets. For histopathology and immunohistochemistry (IHC), tissue samples were prepared by cutting 4-µm sections from the paraffin blocks. IHC staining was performed by methods described earlier. The images were captured using bright field microscopy (Nikon Microscope). Two independent investigators evaluated the H&E and all immunohistochemical staining. For slide scoring, each investigator assessed the tissues and gave a score of 0 (no expression) to 4+ (strong uniform expression) as described previously. The data were expressed either as the mean ± SD or mean ± SEM by using Graph Pad Prism software.

[9] = system: LPS-induced serum inflammatory cytokines; test: LPS-induced inflammation model, serum inflammatory cytokines (LEGENDplex, flow cytometry); type: in vivo, mouse; settings: serum of treated mice
Protocol: as §4, §5
Gram-negative bacterial infections are the main cause of acute lung injury, and LPS, which is the main component of the Gram-negative bacteria cell wall, is the major stimulus for the release of inflammatory mediators. Therefore, we measured the effect of lidocaine alone, methylnaltrexone alone, or a combination of lidocaine and methylnaltrexone on LPS-induced serum inflammatory cytokines profiles. Mouse inflammatory cytokines were measured in serum of control and LPS-challenged mice treated with drugs as described in Table 1, using the LEGENDplex™ mouse inflammation panel (BioLegend, USA) kit followed by flow cytometry as per manufacturer’s specifications. […] However, serum tumor necrosis factor-alpha (TNF-α), monocyte chemoattractant protein 1 (MCP- 1), interleukin 10 (IL-10), interleukin 6 (IL-6), and interleukin 17A (IL-17A) levels were found decreased in mice challenged with LPS and treated with lidocaine and methylnaltrexone together (FIGS. 14C-G). IL-1, IL-6, IL-17A, MCP-1, and TNFα are pro- inflammatory cytokines associated with inflammatory signaling. Taken together, these findings indicate that combined treatment of lidocaine and methylnaltrexone has the potential to suppress inflammatory signaling.

[10] = system: immune cells in lungs and spleen of LPS-challenged mice; test: LPS-induced inflammation model, IHC staining of immune cells in lungs and spleen; type: in vivo, mouse; settings: lungs and spleen sections
Protocol: as §4
as §5, with “The data were expressed either as the mean ± SD or mean ± SEM by using Graph Pad Prism software.” left out

[11] = system: human pulmonary microvascular endothelial cell; settings: with 5-FU and bevacizumab; cited from earlier work
[12] = system: patients with advanced disease and cancer; settings: regular clinical doses; cited from earlier work
[13] = Example 8, 10 µM lidocaine, 100 nM methylnaltrexone or both, different time points

Molecule: O=C1CC[C@@]2(O)[C@H]3Cc4ccc(O)c5c4[C@@]2(CCN3CC2CC2)[C@H]1O5 [naltrexone]
- receptor protein tyrosine phosphatase activity [1]: not

Molecule: TNF-α
- time of maximum activation of Src protein (Src protein [2]): 45 min
- time of maximum activation of Src protein (Src protein [3]): 45 min

Molecule: C[N@+]1(CC2CC2)CC[C@]23c4c5ccc(O)c4O[C@H]2C(=O)CC[C@@]3(O)[C@H]1C5 [methylnaltrexone]
- total Src (p-Src / total Src [4]; Example 5, 10 µM lidocaine over 6 hours, increasing doses of methylnaltrexone, 1 hour): not affected
- concentrations attenuating Src phosphorylation (p-Src / total Src [4]; Example 5, 1 hour incubation): above 50 nM
- phosphorylation of Src (p-Src / total Src [4]; Example 6, 100 nM methylnaltrexone, different time points): attenuates phosphorylation of Src in KPC-105 cells starting at 2 hours
- phosphorylation of Src (p-Src / total Src [4]; [13]): attenuated phosphorylation of Src after 1 hour of exposure
- total Src (p-Src / total Src [4]; [13]): decreased total Src after 1 hour of exposure
- Src after Src normalization (p-Src / total Src [5]; 100 nM methylnaltrexone exposure, preliminary results): no increase in Src
- p-Src activity (p-Src / total Src [5]; 10 µM lidocaine, 100 nM methylnaltrexone or both, one hour): attenuated p-Src activity
- p-Src (p-Src / total Src [6]): attenuated p-Src
- p-Src (p-Src / total Src [7]): initially decreased p-Src at 30 minutes and 1 hour
- H&E staining, histopathology of lungs ([8]; LPS challenged mice, lungs): perivascular edema and accumulation of mixed cell infiltration within blood, and lymphatic vessels
- histological examination of spleen ([8]; LPS challenged mice, spleen): increased number of erythrocytes in the red pulp, along with mild edema
- LPS-induced inflammation (overall conclusion) ([8]; mouse model, drug alone): partially mitigate
- serum interferon-gamma (IFNγ) level [9]: insignificant changes
- serum interleukin 1 alpha (IL-1α) level [9]: insignificant changes
- F4/80 positive area (macrophages) [10]: partially decreased
- inhibition of VEGF-induced cell proliferation and migration [11]: synergistic effect
- receptor protein tyrosine phosphatase activity [1]: increased
- overall survival [12]: increased overall survival
